# Assay results as given in patent EP2842965A1, “Neuromedin U analogs comprising serum albumin binding amino acid residue” (Gubra ApS, priority 2013, dated 2015).
# Starred links: 1 amine or outer side, 2 acyl side, 3 side chain; linkers in the order of their positions; H or OH if unused. Residues, ends and D or L forms follow the SMILES beside them. Groups on a side chain read outwards from the residue. *: point of attachment. γGlu = O=C(O)[C@H](CCC(=O)[*:2])N[*:1]; Palmitoyl = CCCCCCCCCCCCCCCC(=O)*
# Experiment: In vivo acute/dose response study of food intake in the HM2 system after SC dosing
# Conditions: 6 hours post dosing, male NMRI mice
# Description: Animals: A total of seventy two (72) male NMRI mice 6-7 weeks old (approx. 25 g BW) at the time of arrival were obtained from Taconic (Denmark) and transferred to the Gubra test stables. Upon arrival the animals will be transferred into the HM2 cages and housed in groups of four. The animal room environment were controlled (targeted ranges: temperature 22 ± 2°C; relative humidity 50 ± 10%; light/dark cycle: 12 hours light, 12 hours dark, lights on from 6 AM to 6 PM. […] have ad libitum access to Altromin (Brogaarden, Denmark) and tap water.
# Run-in period: Mice arrived at day -7. A minimum of 5-7 days of habituation to the system was allowed before study start. During these days, animals were handled daily to accustom them to the experimental paradigm.
# Runs in the HM2 system: In total five runs were performed in the HM2 system. There were at least 4 days of washout between each run.
# Acute effect of lipidated analogues: Mice were re-randomized and the acute effects of the lipidated compounds were tested in an acute setting. Mice were dosed in doses equimolar to the concentration of NMU found to be semi-efficacious.
# Dose response study: Different doses of the analogues were tested in order to establish a dose response relationship. Mice were re-randomized and four different doses of the five lipidated analogues were tested over two different runs in the HM2 system and compared with NMU at […] and liraglutide at 0.05 µmol/kg.
# Randomization and experimentation: Animals were randomized according to body weight the day of dosing and stratified into the following experimental groups based on mean cage weight (n=4-8): • Pilot (PD) study run 1 (dose finding of NMU): • 1: Vehicle (0.9% NaCl, pH ∼ 4.0 and 0.1% BSA) (n=4) • 2: Native human Neuromedin U (NMU-25), sc, 1 mg/kg (n=4) • 3: Native human Neuromedin U (NMU-25), sc, 3 mg/kg (n=4) • 4: Native human Neuromedin U (NMU-25), sc, 10 mg/kg (n=4) • 5: PYY3-36, sc 1 mg/kg (n=4) • Pilot (PD) study run 2 (dose finding of NMU): • 1: Vehicle (0.9% NaCl, pH ∼ 4.0 and 0.1% BSA) (n=4) • 2: Native human Neuromedin U (NMU-25), sc, 1 mg/kg (n=4) • 3: Native human Neuromedin U (NMU-25), sc, 3 mg/kg (n=4) • Acute effects of lipidated analogues: • 1: Vehicle (PBS + 0.1% BSA+ 5.4% DMSO) SC • 2: Liraglutide 0.2 mg/kg, sc, 0.05 pmol/kg (n=8) • 3: Human neuromedin U 25 (NMU), sc, 1 µmol/kg (n=8) • 5: SEQ ID NO 17, sc, 1 pmol/kg (n=8) • 6: SEQ ID NO 14, sc, 1 pmol/kg (n=8) • 7: SEQ ID NO 11, sc, 1 pmol/kg (n=8) • 8: SEQ ID NO 8, sc, 1 pmol/kg (n=8) • 9: SEQ ID NO 5, sc, 1 pmol/kg (n=8) • Dose response study run 1 • 1: Vehicle (0.9% NaCl, pH ∼ 4.1 and 0.1% BSA) (n=6) • 2: Liraglutide 0.2 mg/kg, sc, 0.05 pmol/kg (n=4) • 3: Human neuromedin U 25 (NMU), sc, 1 µmol/kg (n=5) • 8: SEQ ID NO 17, sc, 1 pmol/kg (n=4) • 9: SEQ ID NO 17, sc, 0.3 pmol/kg (n=5) • 10: SEQ ID NO 17, sc, 0.1 µmol/kg (n=5) • 11: SEQ ID NO 17, sc, 0.03 pmol/kg (n=5) • 12: SEQ ID NO 14, sc, 1 pmol/kg (n=4) • 13: SEQ ID NO 14, sc, 0.3 pmol/kg (n=5) • 14: SEQ ID NO 14, sc, 0.1 pmol/kg (n=5) • 15: SEQ ID NO 14, sc, 0.03 pmol/kg (n=5) • Dose response study run 2 • 1: Vehicle (0.9%NaCl, pH ∼ 4.0 and 0.1% BSA) (n=5) • 2: Liraglutide 0.2 mg/kg, sc, 0.05 pmol/kg (n=4) • 3: Human neuromedin U 25 (NMU), sc, 1 µmol/kg (n=4) • 4: SEQ ID NO 11, sc, 1 pmol/kg (n=4) • 5: SEQ ID NO 11, sc, 0.3 pmol/kg (n=5) • 6: SEQ ID NO 11, sc, 0.1 pmol/kg (n=5) • 7: SEQ ID NO 11, sc, 0.03 pmol/kg (n=5) • 8: SEQ ID NO 8, sc, 1 pmol/kg (n=4) • 9: SEQ ID NO 8, sc, 0.3 pmol/kg (n=5) • 10: SEQ ID NO 8, sc, 0.1 pmol/kg (n=5) • 11: SEQ ID NO 8, sc, 0.03 pmol/kg (n=5) • 12: SEQ ID NO 5, sc, 1 pmol/kg (n=4) • 13: SEQ ID NO 5, sc, 0.3 pmol/kg (n=5) • 14: SEQ ID NO 5, sc, 0.1 µmol/kg (n=5) • 15: SEQ ID NO 5, sc, 0.03 pmol/kg (n=5) Dosing: All dosing took place just prior to lights out in the afternoon. Doses was administered subcutaneously (sc) (dose volume 10 ml/kg), alternating the injection site from the left to the right side of the lower back and inguinal region, respectively. […]
Structure (SMILES),Percent food intake reduction 6 hours post SC dosing (0.03 µmol/kg),Percent food intake reduction 6 hours post SC dosing (0.1 µmol/kg),Percent food intake reduction 6 hours post SC dosing (0.3 µmol/kg),Percent food intake reduction 6 hours post SC dosing (1.0 µmol/kg)
CCCCCCCCCCCCCCCC(=O)N[C@@H](CCC(=O)NCCCC[C@H](NC(=O)[C@H](CCC(N)=O)NC(=O)[C@H](CO)NC(=O)[C@H](C)NC(=O)[C@H](Cc1ccccc1)NC(=O)[C@@H]1CCCN1C(=O)[C@H](CO)NC(=O)[C@H](CCC(N)=O)NC(=O)[C@H](Cc1ccccc1)NC(=O)[C@H](CCC(=O)O)NC(=O)[C@H](CCC(=O)O)NC(=O)[C@H](CC(=O)O)NC(=O)[C@@H](NC(=O)[C@H](CCCNC(=N)N)NC(=O)[C@@H](N)Cc1ccccc1)C(C)C)C(=O)N[C@@H](CCCNC(=N)N)C(=O)NCC(=O)N[C@@H](Cc1ccc(O)cc1)C(=O)N[C@@H](Cc1ccccc1)C(=O)N[C@@H](CC(C)C)C(=O)N[C@@H](Cc1ccccc1)C(=O)N[C@@H](CCCNC(=N)N)C(=O)N1CCC[C@H]1C(=O)N[C@@H](CCCNC(=N)N)C(=O)N[C@@H](CC(N)=O)C(N)=O)C(=O)O [SEQ ID NO 5] (H-FRVDEEFQSPFASQK([γGlu-Palmitoyl])RGYFLFRPRN-NH2),41%,41%,61%,76%
CCCCCCCCCCCCCCCC(=O)N[C@@H](CCC(=O)NCCCC[C@H](NC(=O)[C@H](C)NC(=O)[C@H](Cc1ccccc1)NC(=O)[C@@H]1CCCN1C(=O)[C@H](CO)NC(=O)[C@H](CCC(N)=O)NC(=O)[C@H](Cc1ccccc1)NC(=O)[C@H](CCC(=O)O)NC(=O)[C@H](CCC(=O)O)NC(=O)[C@H](CC(=O)O)NC(=O)[C@@H](NC(=O)[C@H](CCCNC(=N)N)NC(=O)[C@@H](N)Cc1ccccc1)C(C)C)C(=O)N[C@@H](CCC(N)=O)C(=O)N[C@@H](CO)C(=O)N[C@@H](CCCNC(=N)N)C(=O)NCC(=O)N[C@@H](Cc1ccc(O)cc1)C(=O)N[C@@H](Cc1ccccc1)C(=O)N[C@@H](CC(C)C)C(=O)N[C@@H](Cc1ccccc1)C(=O)N[C@@H](CCCNC(=N)N)C(=O)N1CCC[C@H]1C(=O)N[C@@H](CCCNC(=N)N)C(=O)N[C@@H](CC(N)=O)C(N)=O)C(=O)O [SEQ ID NO 8] (H-FRVDEEFQSPFAK([γGlu-Palmitoyl])QSRGYFLFRPRN-NH2),25%,55%,46%,90%
CCCCCCCCCCCCCCCC(=O)N[C@@H](CCC(=O)NCCCC[C@H](NC(=O)[C@H](CCC(=O)O)NC(=O)[C@H](CC(=O)O)NC(=O)[C@@H](NC(=O)[C@H](CCCNC(=N)N)NC(=O)[C@@H](N)Cc1ccccc1)C(C)C)C(=O)N[C@@H](Cc1ccccc1)C(=O)N[C@@H](CCC(N)=O)C(=O)N[C@@H](CO)C(=O)N1CCC[C@H]1C(=O)N[C@@H](Cc1ccccc1)C(=O)N[C@@H](C)C(=O)N[C@@H](CO)C(=O)N[C@@H](CCC(N)=O)C(=O)N[C@@H](CO)C(=O)N[C@@H](CCCNC(=N)N)C(=O)NCC(=O)N[C@@H](Cc1ccc(O)cc1)C(=O)N[C@@H](Cc1ccccc1)C(=O)N[C@@H](CC(C)C)C(=O)N[C@@H](Cc1ccccc1)C(=O)N[C@@H](CCCNC(=N)N)C(=O)N1CCC[C@H]1C(=O)N[C@@H](CCCNC(=N)N)C(=O)N[C@@H](CC(N)=O)C(N)=O)C(=O)O [SEQ ID NO 14] (H-FRVDEK([γGlu-Palmitoyl])FQSPFASQSRGYFLFRPRN-NH2),5%,31%,79%,89%
CCCCCCCCCCCCCCCC(=O)N[C@@H](CCC(=O)NCCCC[C@H](NC(=O)[C@@H](NC(=O)[C@H](CCCNC(=N)N)NC(=O)[C@@H](N)Cc1ccccc1)C(C)C)C(=O)N[C@@H](CCC(=O)O)C(=O)N[C@@H](CCC(=O)O)C(=O)N[C@@H](Cc1ccccc1)C(=O)N[C@@H](CCC(N)=O)C(=O)N[C@@H](CO)C(=O)N1CCC[C@H]1C(=O)N[C@@H](Cc1ccccc1)C(=O)N[C@@H](C)C(=O)N[C@@H](CO)C(=O)N[C@@H](CCC(N)=O)C(=O)N[C@@H](CO)C(=O)N[C@@H](CCCNC(=N)N)C(=O)NCC(=O)N[C@@H](Cc1ccc(O)cc1)C(=O)N[C@@H](Cc1ccccc1)C(=O)N[C@@H](CC(C)C)C(=O)N[C@@H](Cc1ccccc1)C(=O)N[C@@H](CCCNC(=N)N)C(=O)N1CCC[C@H]1C(=O)N[C@@H](CCCNC(=N)N)C(=O)N[C@@H](CC(N)=O)C(N)=O)C(=O)O [SEQ ID NO 17] (H-FRVK([γGlu-Palmitoyl])EEFQSPFASQSRGYFLFRPRN-NH2),20%,43%,64%,78%
